Results from paper PMC8191380 (Nucleosides, nucleotides & nucleic acids, 2019).
Where two headings read alike, the source gives them in different places.

Assays:
[1] = Cytotoxicity in MT-2 cells; type: cell-based; conditions: human
MT-2 cells = assay: Cytotoxicity in MT-2 cells; type: cell-based; conditions: for CC50: read-out: CC50 (50% cytotoxic concentration)
HBV [2] = assay: Anti-HBV assay in HBV-producing HepG2 2.2.15 cells; type: cell-based, Hepatitis B virus; conditions: read-out: EC50 (50% effective concentration; concentration that inhibits 50% of virus replication)
wild-type HBV = conditions: cited from earlier work
HIV [3] = conditions: cited from earlier work
entecavir-resistant HBV = conditions: cited from earlier work
[4] = cited from earlier work
HIV [5] = conditions: read-out: anti-HIV activity EC50; reported in 1992; cited from earlier work
HIV-1 = conditions: cited from earlier work
HBV [6] = conditions: cited from earlier work; for EC50: read-out: anti-HBV activity EC50
HBV [7] = conditions: read-out: anti-HBV activity EC50; cited from earlier work
HBV [8] = conditions: read-out: anti-HBV activity EC50; cited from earlier work; remark: listed apart in the source
[9] = Hepatitis B virus, HepG2 2.2.15, 336 h
[10] = HepG2 2.2.15 cells, day 14, HBV DNA

Cc1cn([C@H]2C[C@H](O)[C@](CO)(N=[N+]=[N-])O2)c(=O)nc1N [Compound 10, 4′-Azido-2′-deoxy-5-methylcytidine]
CC50 [1]: > 100 µM | no cytotoxicity up to (concentration) (MT-2 cells): > 100 µM | EC50 (HBV [2]; [9]): 5.99 ± 5.54 µM

C=C1[C@H](CO)[C@@H](O)C[C@@H]1n1cnc2c(=O)[nH]c(N)nc21 [Entecavir]
CC50 [1]: 57.2 ± 5.2 µM | EC50 (HBV [2]; [9]): 0.00675 ± 0.000353 µM

N#C[C@]1(CO)O[C@@H](n2cnc3c(=O)[nH]c(N)nc32)C[C@@H]1O [Compound 1, 4′-cyano-2′-deoxyguanosine]
replication of wild-type HBV (in words) (wild-type HBV): block the replication | anti-HIV activity (in words) (HIV [3]): potent anti-HIV activity | replication of entecavir-resistant HBV (in words) (entecavir-resistant HBV): block the replication

[N-]=[N+]=N[C@]1(CO)O[C@@H](n2ccc(N)nc2=O)C[C@@H]1O [4′-azido-2′-deoxycytidine]
cytotoxicity CC25 [4]: 0.21 µM

Cc1cn([C@H]2C[C@H](O)[C@](CO)(N=[N+]=[N-])O2)c(=O)[nH]c1=O [Compound 6, 4′-azido thymidine]
EC50 (HIV [5]): 0.01 µM | CC50 [1]: > 100 µM | no cytotoxicity up to (concentration) (MT-2 cells): > 100 µM | EC50 (HBV [2]; [9]): 0.63 ± 0.29 µM

[N-]=[N+]=N[C@]1(CO)O[C@@H](n2cnc3c(=O)[nH]c(N)nc32)C[C@@H]1O [Compound 3, 4′-azido-2′-deoxyguanosine]
potency against HIV-1 (in words) (HIV-1): highly potent | potency against HBV (in words) (HBV [6]): highly potent | EC50 (HBV [6]): 0.0097 µM

CNc1nc(=O)n([C@H]2C[C@H](O)[C@](CO)(N=[N+]=[N-])O2)cc1C [Compound 13, 4′-Azido-2′-deoxy-N4,5-dimethylcytidine]
CC50 [1]: > 100 µM | EC50 (HBV [2]; [9]): > 100 µM

Cc1cn([C@H]2C[C@H](F)[C@@H](CO)O2)c(=O)nc1N [Compound 8, FddMeC]
EC50 (HBV [7]): 0.54 µM

N#C[C@]1(CO)O[C@@H](n2cnc3c(N)nc(N)nc32)C[C@@H]1O [Compound 2, 4′-cyano-2-amino-2′-deoxyadenosine]
replication of wild-type HBV (in words) (wild-type HBV): block the replication | anti-HIV activity (in words) (HIV [3]): potent anti-HIV activity | replication of entecavir-resistant HBV (in words) (entecavir-resistant HBV): block the replication

[N-]=[N+]=N[C@]1(CO)O[C@@H](n2cnc3c(N)nc(N)nc32)C[C@@H]1O [Compound 4, 4′-azido-2-amino-2′-deoxyadenosine]
potency against HIV-1 (in words) (HIV-1): highly potent | potency against HBV (in words) (HBV [6]): highly potent | EC50 (HBV [6]): 0.0051 µM

CCOc1nc(=O)n([C@H]2C[C@H](O)[C@](CO)(N=[N+]=[N-])O2)cc1C [Compound 12, 4′-Azido-O^4-ethylthymidine]
CC50 (MT-2 cells): > 100 µM | EC50 (HBV [2]; [10]): > 100 µM

CCNc1nc(=O)n([C@H]2C[C@H](O)[C@](CO)(N=[N+]=[N-])O2)cc1C [Compound 14, 4′-Azido-2′-deoxy-N^4-ethyl-5-methylcytidine]
CC50 [1]: > 100 µM | EC50 (HBV [2]; [9]): > 100 µM

Cc1cn([C@H]2C[C@H](O)[C@](CO)(N=[N+]=[N-])O2)c(=O)nc1NC1CC1 [Compound 15, 4′-Azido-N′-cyclopropyl-2′-deoxy-5-methylcytidine]
CC50 (MT-2 cells): > 100 µM | EC50 (HBV [2]; [10]): > 100 µM

COc1nc(=O)n(C2CC(O)C(CO)(N=[N+]=[N-])O2)cc1C (stereo not shown) [Compound 11, 4′-Azido-O^4-methylthymidine]
CC50 (MT-2 cells): > 100 µM | EC50 (HBV [2]; [10]): > 100 µM

[N-]=[N+]=N[C@]1(CO)O[C@@H](n2ccc(N)nc2=O)[C@H](F)[C@@H]1O [Compound 5, 2′-deoxy-2′-P-fluoro-4′-azido cytidine]
EC50 (HBV [8]): 0.12 µM
